The results in this text go back to ChEMBL document CHEMBL1151536, “Biaryl substituted alkylboronate esters as thrombin inhibitors” (Bioorg Med Chem Lett, 1997).

What is called Ki is a measure of affinity in units of concentration, obtained from inhibition or displacement. As usually defined, the IC50 is the point on the concentration scale where inhibition reaches its midpoint. Lower therefore signals inhibition by little substance.

Test [1] addresses Prothrombin (Homo sapiens, UniProt P00734). Nature of the test: Inhibition of thrombin. More on the design: species or system Oryctolagus cuniculus.
Test [2] deals with Serine protease 1 (Homo sapiens, UniProt P07477). Briefly: Inhibition of trypsin.
Test [3] can be described thus: In vitro inhibitory concentration expressed as thrombin time of the compound. It is filed as functional.

Chain of Serine protease 1 (P07477 whole entry): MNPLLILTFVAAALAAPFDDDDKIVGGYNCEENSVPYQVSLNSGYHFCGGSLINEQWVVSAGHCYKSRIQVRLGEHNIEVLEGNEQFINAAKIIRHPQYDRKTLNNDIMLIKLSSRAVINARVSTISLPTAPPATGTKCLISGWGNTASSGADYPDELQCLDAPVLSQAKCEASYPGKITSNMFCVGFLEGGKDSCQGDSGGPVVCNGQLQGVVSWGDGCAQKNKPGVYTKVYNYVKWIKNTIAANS

Regarding `CC1(C)C2CC1[C@]1(C)OB([C@H](CCCNC(=N)N)NC(=O)c3ccc(-c4ccccc4)o3)O[C@@H]1C2` (some centres not stated), in test [1], the affinity, expressed as Ki, was 137 nM.

Turning to `CC1(C)C2CC1[C@]1(C)OB([C@H](CCCN=C(N)N)NC(=O)Cc3ccc(-c4ccccc4)cc3)O[C@@H]1C2` (some centres not stated), the Ki in test [1] stood at 6.9 nM.

On to `COC(=O)NS(=O)(=O)c1ccccc1-c1ccc(C(=O)N[C@@H](CCCN=C(N)N)B2O[C@@H]3CC4CC(C4(C)C)[C@]3(C)O2)c(C)c1` (some centres not stated), for which the results for the Ki in test [2] and in test [1] were 0.64 nM and 1.1 nM, respectively. Moreover, in test [3], the IC50 was 225 nM.

Turning to `CC1(C)OB([C@H](CCCNC(=N)N)NC(=O)c2ccccc2)OC1(C)C`, the Ki was determined as 70 nM in test [2] and 512 nM in test [1].

With `Cc1cc(-c2ccccc2C(F)(F)F)ccc1C(=O)N[C@@H](CCCN=C(N)N)B1O[C@@H]2CC3CC(C3(C)C)[C@]2(C)O1` (some centres not stated), the figures for the inhibition constant (Ki) in test [2] and in test [1] were 3.1 nM and 0.46 nM, respectively.

Turning to `CC(C)(C)OC(=O)Nc1cccc(-c2ccc(C(=O)N[C@@H](CCCNC(=N)N)B3O[C@@H]4CC5CC(C5(C)C)[C@]4(C)O3)s2)c1` (some centres not stated), the results for the Ki in test [2] and in test [1] were 13 nM and 42 nM, respectively.

In test [1], `CC1(C)C2CC1[C@]1(C)OB([C@H](CCCNC(=N)N)NC(=O)c3ccc(-c4ccncc4)cc3)O[C@@H]1C2` (some centres not stated) registered a Ki of 19 nM.

For `Cc1nc(-c2ccccc2)ncc1C(=O)N[C@@H](CCCN=C(N)N)B1O[C@@H]2CC3CC(C3(C)C)[C@]2(C)O1` (some centres not stated), in test [1], the affinity, expressed as Ki, was 10 nM.

As to `CCN(CC)S(=O)(=O)c1ccccc1-c1ccc(C(=O)N[C@@H](CCCNC(=N)N)B2O[C@@H]3CC4CC(C4(C)C)[C@]3(C)O2)c(C)c1` (some centres not stated), the figures for the inhibition constant Ki in test [2] and in test [1] were 0.62 nM and 0.36 nM, respectively.

With `CC1(C)C2CC1[C@]1(C)OB([C@H](CCCN=C(N)N)NC(=O)c3ccc(-c4ccccc4)cc3F)O[C@@H]1C2` (some centres not stated), the inhibition constant Ki in test [1] turned out to be 1.2 nM.

In the case of `CC1(C)C2CC1[C@]1(C)OB([C@H](CCCN=C(N)N)NC(=O)c3ccc(-c4ccccc4)c([N+](=O)[O-])c3)O[C@@H]1C2` (some centres not stated), the inhibition constant Ki worked out at 4.8 nM in test [2] and 4.9 nM in test [1].

For the compound `CC1(C)C2CC1[C@]1(C)OB([C@H](CCCNC(=N)N)NC(=O)c3cccc(-c4cccc(NS(C)(=O)=O)c4)c3)O[C@@H]1C2` (some centres not stated), the Ki in test [2] was 3.8 nM; in test [1], 3.5 nM.

For `Cc1cc(-c2ccccc2S(=O)(=O)NC(C)(C)C)ccc1C(=O)N[C@@H](CCCN=C(N)N)B1O[C@@H]2CC3CC(C3(C)C)[C@]2(C)O1` (some centres not stated), the Ki in test [2] came out at 0.7 nM; in test [1], 0.21 nM. In addition, in test [3], the 50% inhibitory concentration (IC50) was found to be 140 nM.

Turning to `Cc1nc(-c2ccccc2)ncc1C(=O)N[C@@H](CCCCN)B1O[C@@H]2CC3CC(C3(C)C)[C@]2(C)O1` (some centres not stated), in test [1], affinity was put at a Ki of 410 nM.

As for `CC1(C)C2CC1[C@]1(C)OB([C@H](CCCN=C(N)N)NC(=O)c3ccc(-c4ccccc4)cc3[N+](=O)[O-])O[C@@H]1C2` (some centres not stated), affinity in test [1] was put at a Ki of 4.7 nM.

As for `CC1(C)C2CC1[C@]1(C)OB([C@H](CCCN=C(N)N)NC(=O)c3ccc(-c4ccccc4)cc3)O[C@@H]1C2` (some centres not stated), the inhibition constant (Ki) in test [2] came out at 33 nM; in test [1] it was 0.94 nM.

For the compound `CC1(C)C2CC1[C@]1(C)OB([C@H](CCCN=C(N)N)NC(=O)c3ccc(-c4ccccc4)c(N)c3)O[C@@H]1C2` (some centres not stated), the inhibition constant (Ki) in test [2] came to 4.7 nM; in test [1] it was 5.5 nM.

On to `Cc1cc(-c2ccccc2S(N)(=O)=O)ccc1C(=O)N[C@@H](CCCN=C(N)N)B1O[C@@H]2CC3CC(C3(C)C)[C@]2(C)O1` (some centres not stated), for which the results for the Ki in test [2] and in test [1] were 0.11 nM and 0.92 nM, respectively. The IC50 in test [3] is 110 nM.

In the case of `CC(=O)N[C@H](Cc1ccccc1)C(=O)N1CCC[C@H]1C(=O)N[C@@H](CCCN=C(N)N)B(O)O`, in test [3], the 50% inhibitory concentration (IC50) came to 55 nM.

The compound `Cc1cc(-c2ccccc2)ccc1C(=O)N[C@@H](CCCCN)B1O[C@@H]2CC3CC(C3(C)C)[C@]2(C)O1` (some centres not stated) returned an inhibition constant Ki in test [1] of 26 nM.

For `CC1(C)C2CC1[C@]1(C)OB([C@H](CCCNC(=N)N)NC(=O)c3cccc(-c4ccccc4)c3)O[C@@H]1C2` (some centres not stated), the inhibitory constant (Ki) in test [2] came to 7.4 nM; in test [1] it was 110 nM.

With `CC(C)(C)OC(=O)Nc1cccc(-c2cccc(C(=O)N[C@@H](CCCN=C(N)N)B3O[C@@H]4CC5CC(C5(C)C)[C@]4(C)O3)c2)c1` (some centres not stated), the inhibition constant (Ki) stood at 35 nM in test [2] and 8.3 nM in test [1].

`CC1(C)C2CC1[C@]1(C)OB([C@H](CCCN=C(N)N)NC(=O)c3ccc(-c4ccccc4)cc3N)O[C@@H]1C2` (some centres not stated): the Ki turned out to be 5.3 nM in test [2] and 1.3 nM in test [1].

For `Cc1nc(-c2ccccc2)ccc1C(=O)N[C@@H](CCCCN)B1O[C@@H]2CC3CC(C3(C)C)[C@]2(C)O1` (some centres not stated), the inhibition constant (Ki) in test [1] is 580 nM.

In test [1], `N=C(N)NCCC[C@H](NC(=O)c1ccc(-c2ccccc2)cc1)B(O)O` had an inhibitory constant (Ki) of 1.7 nM.

As for `CC(C)(C)OC(=O)Nc1cccc(-c2ccc(C(=O)N[C@@H](CCCN=C(N)N)B3O[C@@H]4CC5CC(C5(C)C)[C@]4(C)O3)o2)c1` (some centres not stated), the Ki in test [2] turned out to be 25 nM; in test [1], 30 nM.

In the case of `Cc1cc(-c2ccccc2)ccc1C(=O)N[C@@H](CCCN=C(N)N)B1O[C@@H]2CC3CC(C3(C)C)[C@]2(C)O1` (some centres not stated), the inhibition constant (Ki) in test [2] stood at 4.2 nM; in test [1], 0.42 nM. This compound also returned a half-inhibitory concentration (IC50) in test [3] of 600 nM.
